The structures appear in SMILES notation. Where a name gives a salt, the structure may show the parent alone.

Common to all, as to type: physicochemical
A short description of data set [1]: Solubility in typical intravenous formulation solutions. Conditions: viewed over 3 days, typical intravenous formulation solutions (e.g., 5% dextrose solution or water suitable for injection), 4320 min.
Data set [2] can be described thus: Comparative stability of MM salt forms. Conditions: comparison of salt forms, in words.
Data set [3] is described as follows: Comparative solubility of MM salt forms.

On to `COc1c(C)c2c(c(O)c1C/C=C(\C)CCC(=O)OCCN1CCOCC1)C(=O)OC2` [2-(4-morpholino)ethyl-(E)-6-(1,3-dihydro-4-hydroxy-6-methoxy-7-methyl-3-oxo-5-isobenzofuranyl)-4-methyl-4-hexenoate hydrochloride], for which the solubility result in data set [1] (hydrochloride) was “approximately 84 mg/ml”.

As for `COc1c(C)c2c(c(O)c1C/C=C(\C)CCC(=O)OCCN1CCOCC1)C(=O)OC2` [MM in its monohydrate salt form], the stability entry in data set [2] was “more stable than MM in its amorphous salt form”.

For the compound `COc1c(C)c2c(c(O)c1C/C=C(\C)CCC(=O)OCCN1CCOCC1)C(=O)OC2` [amorphous salt form], in data set [3] (amorphous vs monohydrate salt form, in words), the solubility characteristics entry is “better solubility characteristics”. On to `COc1c(C)c2c(c(O)c1C/C=C(\C)CCC(=O)OCCN1CCOCC1)C(=O)OC2` [crystalline anhydrous salt form of MM], for which the “increase in solubility over the monohydrate salt form” value in data set [3] (anhydrous vs monohydrate salt form) is listed as “about a two-fold increase in solubility over the monohydrate salt form”. Besides, the stability result in data set [2] was “the same stability characteristics of the monohydrate salt form”. Take `COc1c(C)c2c(c(O)c1C/C=C(\C)CCC(=O)OCCN1CCOCC1)C(=O)OC2` [crystalline monohydrate form]: the solubility entry in data set [1] is on record as “approximately 40 mg/ml”.

The values above are taken from patent US5545637A, “Process for preparing pharmaceutical compositions containing crystalline anhydrous mycophenolate mofetil salts” (Syntex (U.S.A.) Inc., priority 1995, dated 1996).
